Data reported in patent US12071441B2, “10-(di(phenyl)methyl)-4-hydroxy-8,9,9A,10-tetrahydro-7H-pyrrolo[1′,2′:4,5]pyrazino[1,2-b]pyridazine-3,5-dione derivatives and related compounds as inhibitors of the orthomyxovirus replication for treating influenza” (Novartis AG, priority 2018, dated 2024).

Assays:
Assay in all cases: microbe, parasite or virus in culture
Format in all cases: cell-based
[1] = test system: influenza A virus minigenome (PB2, PB1, PA, NP; luciferase reporter) in 293T cells, RNP_Alaska; details: HEK-293T, 48 h
[2] = test system: influenza A virus minigenome (PB2, PB1, PA, NP; luciferase reporter) in 293T cells, RNP_CAL; details: HEK-293T, 48 h, read-out: RNP_CAL_EC50
[3] = test system: influenza A virus minigenome (PB2, PB1, PA, NP; luciferase reporter) in 293T cells, RNP_Hubei; details: HEK-293T, 48 h

Row | Compound | EC50 [1] | EC50 [2] | EC50 [3]
1 | O=C1c2c(O)c(=O)cnn2[C@@H]([C@@H](c2ccc(F)c(F)c2)c2cccc(F)c2F)[C@H]2CCCN12 [Example 27, (9aR,10S)-10-((S)-(2,3-difluorophenyl)(3,4-difluorophenyl)methyl)-4-hydroxy-8,9,9a,10-tetrahydro-7H-pyrrolo[1′,2′:4,5]pyrazino[1,2-b]pyridazine-3,5-dione] | 0.1 to 1 µM | < 0.1 µM | < 0.1 µM
2 | CN(C)C(=O)Oc1c2n(ncc1=O)[C@@H]([C@H](c1ccccc1)c1cccc(F)c1F)[C@H]1CCCN1C2=O [Example 35, (9aR,10S)-10-((R)-(2,3-difluorophenyl)(phenyl)methyl)-3,5-dioxo-3,5,8,9,9a,10-hexahydro-7H-pyrrolo[1′,2′:4,5]pyrazino[1,2-b]pyridazin-4-yl dimethylcarbamate] | ≥ 1 µM | ≥ 1 µM | ≥ 1 µM
3 | O=C(Oc1c2n(ncc1=O)[C@@H]([C@H](c1cccc(F)c1)c1cccc(F)c1F)[C@H]1CCCN1C2=O)N1CCC(N2CCCCC2)CC1 [Example 102, (9aR,10S)-10-((R)-(2,3-difluorophenyl)(3-fluorophenyl)methyl)-3,5-dioxo-3,5,8,9,9a,10-hexahydro-7H-pyrrolo[1′,2′:4,5]pyrazino[1,2-b]pyridazin-4-yl [1,4′-bipiperidine]-1′-carboxylate] | ≥ 1 µM | ≥ 1 µM | ≥ 1 µM
4 | CN1CCN(C(=O)Oc2c3n(ncc2=O)[C@@H]([C@H](c2ccccc2)c2cccc(F)c2F)[C@H]2CCCN2C3=O)CC1 [Example 44, (9aR,10S)-10-((R)-(2,3-difluorophenyl)(phenyl)methyl)-3,5-dioxo-3,5,8,9,9a,10-hexahydro-7H-pyrrolo[1′,2′:4,5]pyrazino[1,2-b]pyridazin-4-yl 4-methylpiperazine-1-carboxylate] | 0.1 to 1 µM | 0.1 to 1 µM | < 0.1 µM
5 | COC(=O)OC(C)Oc1c2n(ncc1=O)[C@@H]([C@H](c1ccccc1)c1cccc(F)c1F)[C@H]1CCCN1C2=O (stereo partly drawn) [Example 33, 1-(((9aR,10S)-10-((R)-(2,3-difluorophenyl)(phenyl)methyl)-3,5-dioxo-3,5,8,9,9a,10-hexahydro-7H-pyrrolo[1′,2′:4,5]pyrazino[1,2-b]pyridazin-4-yl)oxy)ethyl methyl carbonate] | 0.1 to 1 µM | < 0.1 µM | < 0.1 µM
6 | Cc1c(F)cccc1[C@@H](c1cccc(F)c1)[C@H]1[C@H]2CCCN2C(=O)c2c(O)c(=O)cnn21 [Example 15, (9aR,10S)-10-((R)-(3-fluoro-2-methylphenyl)(3-fluorophenyl)methyl)-4-hydroxy-8,9,9a,10-tetrahydro-7H-pyrrolo[1′,2′:4,5]pyrazino[1,2-b]pyridazine-3,5-dione] | < 0.1 µM | < 0.1 µM | < 0.1 µM
7 | CCOC(=O)Oc1c2n(ncc1=O)[C@@H]([C@H](c1ccccc1)c1cccc(F)c1F)[C@H]1CCCN1C2=O [Example 53, (9aR,10S)-10-((R)-(2,3-difluorophenyl)(phenyl)methyl)-3,5-dioxo-3,5,8,9,9a,10-hexahydro-7H-pyrrolo[1′,2′:4,5]pyrazino[1,2-b]pyridazin-4-yl ethyl carbonate] | < 0.1 µM | < 0.1 µM | < 0.1 µM
8 | Cc1c([C@@H](c2cccc(F)c2)[C@H]2[C@H]3CCCN3C(=O)c3c(O)c(=O)cnn32)ccc(F)c1F [Example 11, (9aR,10S)-10-((R)-(3,4-difluoro-2-methylphenyl)(3-fluorophenyl)methyl)-4-hydroxy-8,9,9a,10-tetrahydro-7H-pyrrolo[1′,2′:4,5]pyrazino[1,2-b]pyridazine-3,5-dione] | < 0.1 µM | < 0.1 µM | < 0.1 µM
9 | O=C1c2c(O)c(=O)cnn2[C@@H]([C@H](c2ccccc2F)c2cccc(F)c2F)[C@H]2CCCN12 [Example 8, (9aR,10S)-10-((R)-(2,3-difluorophenyl)(2-fluorophenyl)methyl)-4-hydroxy-8,9,9a,10-tetrahydro-7H-pyrrolo[1′,2′:4,5]pyrazino[1,2-b]pyridazine-3,5-dione] | < 0.1 µM | < 0.1 µM | < 0.1 µM
10 | CC(C)CC(=O)OCOc1c2n(ncc1=O)[C@@H]([C@H](c1ccccc1)c1cccc(F)c1F)[C@H]1CCCN1C2=O [Example 72, (((9aR,10S)-10-((R)-(2,3-difluorophenyl)(phenyl)methyl)-3,5-dioxo-3,5,8,9,9a,10-hexahydro-7H-pyrrolo[1′,2′:4,5]pyrazino[1,2-b]pyridazin-4-yl)oxy)methyl 3-methylbutanoate] | < 0.1 µM | < 0.1 µM | < 0.1 µM
11 | CCOC(=O)OCOc1c2n(ncc1=O)[C@@H]([C@H](c1ccccc1)c1cccc(F)c1F)[C@H]1CCCN1C2=O [Example 51, (((9aR,10S)-10-((R)-(2,3-difluorophenyl)(phenyl)methyl)-3,5-dioxo-3,5,8,9,9a,10-hexahydro-7H-pyrrolo[1′,2′:4,5]pyrazino[1,2-b]pyridazin-4-yl)oxy)methyl ethyl carbonate] | < 0.1 µM | < 0.1 µM | < 0.1 µM
12 | COc1ccc([C@@H](c2ccc(F)cc2)[C@H]2[C@H]3CCCN3C(=O)c3c(O)c(=O)cnn32)cc1 [Example 26, (9aR,10S)-10-((S)-(4-fluorophenyl)(4-methoxyphenyl)methyl)-4-hydroxy-8,9,9a,10-tetrahydro-7H-pyrrolo[1′,2′:4,5]pyrazino[1,2-b]pyridazine-3,5-dione] | 0.1 to 1 µM | 0.1 to 1 µM | 0.1 to 1 µM
13 | CC(=O)OCOc1c2n(ncc1=O)[C@@H]([C@H](c1ccccc1)c1cccc(F)c1F)[C@H]1CCCN1C2=O [Example 76, (((9aR,10S)-10-((R)-(2,3-difluorophenyl)(phenyl)methyl)-3,5-dioxo-3,5,8,9,9a,10-hexahydro-7H-pyrrolo[1′,2′:4,5]pyrazino[1,2-b]pyridazin-4-yl)oxy)methyl acetate] | < 0.1 µM | < 0.1 µM | < 0.1 µM
14 | COc1ccc([C@H](c2ccc(F)cc2)[C@H]2[C@H]3CCCN3C(=O)c3c(O)c(=O)cnn32)cc1 [Example 7, (9aR,10S)-10-((R)-(4-fluorophenyl)(4-methoxyphenyl)methyl)-4-hydroxy-8,9,9a,10-tetrahydro-7H-pyrrolo[1′,2′:4,5]pyrazino[1,2-b]pyridazine-3,5-dione] | 0.1 to 1 µM | 0.1 to 1 µM | 0.1 to 1 µM
15 | O=C1c2c(O)c(=O)cnn2[C@@H](C(c2cccc(F)c2)c2cccc(F)c2)[C@H]2CC(F)(F)CN12 [Example 13, (9aR,10S)-10-(bis(3-fluorophenyl)methyl)-8,8-difluoro-4-hydroxy-8,9,9a,10-tetrahydro-7H-pyrrolo[1′,2′:4,5]pyrazino[1,2-b]pyridazine-3,5-dione] | ≥ 1 µM | ≥ 1 µM | 0.1 to 1 µM
16 | CN(C)C(=O)OCOc1c2n(ncc1=O)[C@@H]([C@H](c1ccc(F)cc1)c1cccc(F)c1F)[C@H]1CCCN1C2=O [Example 85, (((9aR,10S)-10-((R)-(2,3-difluorophenyl)(4-fluorophenyl)methyl)-3,5-dioxo-3,5,8,9,9a,10-hexahydro-7H-pyrrolo[1′,2′:4,5]pyrazino[1,2-b]pyridazin-4-yl)oxy)methyl dimethylcarbamate] | ≥ 1 µM | 0.1 to 1 µM | 0.1 to 1 µM
17 | CCOC(=O)OCOc1c2n(ncc1=O)[C@@H]([C@H](c1ccc(F)cc1)c1cccc(F)c1F)[C@H]1CCCN1C2=O [Example 92, (((9aR,10S)-10-((R)-(2,3-difluorophenyl)(4-fluorophenyl)methyl)-3,5-dioxo-3,5,8,9,9a,10-hexahydro-7H-pyrrolo[1′,2′:4,5]pyrazino[1,2-b]pyridazin-4-yl)oxy)methyl ethyl carbonate] | < 0.1 µM | < 0.1 µM | < 0.1 µM
18 | COc1cccc([C@H](c2ccc(F)cc2)[C@H]2[C@H]3CCCN3C(=O)c3c(O)c(=O)cnn32)c1 [Example 9, (9aR,10S)-10-((S)-(4-fluorophenyl)(3-methoxyphenyl)methyl)-4-hydroxy-8,9,9a,10-tetrahydro-7H-pyrrolo[1′,2′:4,5]pyrazino[1,2-b]pyridazine-3,5-dione] | 0.1 to 1 µM | 0.1 to 1 µM | < 0.1 µM
19 | COC(=O)c1ccccc1C(=O)Oc1c2n(ncc1=O)[C@@H]([C@H](c1ccccc1)c1cccc(F)c1F)[C@H]1CCCN1C2=O [Example 70, (9aR,10S)-10-((R)-(2,3-difluorophenyl)(phenyl)methyl)-3,5-dioxo-3,5,8,9,9a,10-hexahydro-7H-pyrrolo[1′,2′:4,5]pyrazino[1,2-b]pyridazin-4-yl methyl phthalate] | < 0.1 µM | < 0.1 µM | < 0.1 µM
20 | COc1ccccc1[C@H](c1ccc(F)cc1)[C@H]1[C@H]2CCCN2C(=O)c2c(O)c(=O)cnn21 [Example 6, (9aR,10S)-10-((S)-(4-fluorophenyl)(2-methoxyphenyl)methyl)-4-hydroxy-8,9,9a,10-tetrahydro-7H-pyrrolo[1′,2′:4,5]pyrazino[1,2-b]pyridazine-3,5-dione] | 0.1 to 1 µM | 0.1 to 1 µM | 0.1 to 1 µM
21 | CCC(=O)Oc1c2n(ncc1=O)[C@@H]([C@H](c1cccc(F)c1)c1cccc(F)c1F)[C@H]1CCCN1C2=O [Example 106, (9aR,10S)-10-((R)-(2,3-difluorophenyl)(3-fluorophenyl)methyl)-3,5-dioxo-3,5,8,9,9a,10-hexahydro-7H-pyrrolo[1′,2′:4,5]pyrazino[1,2-b]pyridazin-4-yl propionate] | < 0.1 µM | < 0.1 µM | < 0.1 µM
22 | O=C1c2c(O)c(=O)cnn2[C@@H]([C@H](c2cccc(C(F)(F)F)c2)c2cccc(F)c2F)[C@H]2CCCN12 [Example 3, (9aR,10S)-10-((R)-(2,3-difluorophenyl)(3-(trifluoromethyl)phenyl)methyl)-4-hydroxy-8,9,9a,10-tetrahydro-7H-pyrrolo[1′,2′:4,5]pyrazino[1,2-b]pyridazine-3,5-dione] | < 0.1 µM | < 0.1 µM | < 0.1 µM
